Results from patent US10457914B2, “Optimized methods for differentiation of cells into cells with hepatocyte and hepatocyte progenitor phenotypes, cells produced by the methods, and methods for using the cells” (priority 2008, dated 2019).

Test system: rat MAPCs
Assay: In vitro hepatic differentiation of rat MAPCs, read out by qRT-PCR
Format: cell-based
Protocol: Undifferentiated MAPCs were expanded at large scale until several million cells were obtained. Cells then were plated at 50,000-60,000 cells/cm^2 in Matrigel (2%) coated wells. Initially, cells were cultured in expansion medium until they reached 80-90% confluency 16 hours later. Then, cells were washed twice with PBS and the medium was switched to differentiation medium. Basal differentiation medium consisted of DMEM (60%), MCDB (40%), ascorbic acid (IX), penicillin/streptomycin (1×), beta-mercaptoethanol, ITS (0.25×), LA-BSA (0.25×) and dexamethasone (10^-6M). Understanding the molecular signals favoring liver development is essential for the development of a logical in vitro differentiation protocol to modulate stem cell differentiation towards the hepatic fate. With this in mind, different cytokines at variable concentrations and chronological orders were investigated for their hepatocyte inducing capacity in […]. Cytokines tested included Nodal, its co-receptor Cripto, ActivinA, Wnt3a, BMP4, bFGF, aFGF, FGF8b, EGF, Nicotinamide, heparan sulphate proteoglycan, Oncostatin M, HGF and Follistatin. All cytokines were purchased from R&D, Minneapolis, USA. Apart from the cytokines, medium components also play an important role in guiding cells towards a specific fate. […]

insulin: medium component (ITS); a lower amount was used to avoid adipogenesis
expression of mature markers (albumin, TAT) (high concentration of dexamethasone together with low concentration of insulin in differentiation medium): enhanced expression of some mature markers

B1: Wnt3a: recombinant cytokine, hepatic differentiation factor, 50 ng/ml in step 1 (protein, UniProt P56704 19-352, looked up)
Protein Wnt-3a: SYPIWWSLAVGPQYSSLGSQPILCASIPGLVPKQLRFCRNYVEIMPSVAEGIKIGIQECQHQFRGRRWNCTTVHDSLAIFGPVLDKATRESAFVHAIASAGVAFAVTRSCAEGTAAICGCSSRHQGSPGKGWKWGGCSEDIEFGGMVSREFADARENRPDARSAMNRHNNEAGRQAIASHMHLKCKCHGLSGSCEVKTCWWSQPDFRAIGDFLKDKYDSASEMVVEKHRESRGWVETLRPRYTYFKVPTERDLVYYEASPNFCEPNPETGSFGTRDRTCNVSSHGIDGCDLLCCGRGHNARAERRREKCRCVFHWCCYVSCQECTRVYDVHTCK
induction of differentiation (serum-free conditions, in the complete absence of serum cell death occurred): differentiation was induced
